Test results taken from patent US20260028336A1 (Arcus Biosciences, Inc., priority 2022, published 2026).

How the values were obtained:
Jurkat cells = assay: IL-2 secretion assay in CD3/CD28-activated Jurkat cells (AlphaLISA); format: cell-based; details: Homo sapiens, CD3/CD28 T Cell Activator, 24 h, IL-2 AlphaLISA
Outline: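 Jurkat cells (50,000/well) were preincubated 1 h at 37° C with compound in a 16-point 1:2 series spanning 10 μM to 300 pM final. Cells were then activated with CD3/CD28 T cell activator, and secreted IL-2 was read by AlphaLISA. EC50 came from 4-parameter logistic fits.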

Cbl-b = biological target: T1, Cbl-b (Homo sapiens, UniProt Q13191); assay: Cbl-b probe displacement HTRF binding assay; details: 0.4 nM biotinylated Cbl-b, 150 nM BODIPY probe
T1 construct: biotin (biotinylated)
T1 sequence (Q13191 whole entry, species assumed): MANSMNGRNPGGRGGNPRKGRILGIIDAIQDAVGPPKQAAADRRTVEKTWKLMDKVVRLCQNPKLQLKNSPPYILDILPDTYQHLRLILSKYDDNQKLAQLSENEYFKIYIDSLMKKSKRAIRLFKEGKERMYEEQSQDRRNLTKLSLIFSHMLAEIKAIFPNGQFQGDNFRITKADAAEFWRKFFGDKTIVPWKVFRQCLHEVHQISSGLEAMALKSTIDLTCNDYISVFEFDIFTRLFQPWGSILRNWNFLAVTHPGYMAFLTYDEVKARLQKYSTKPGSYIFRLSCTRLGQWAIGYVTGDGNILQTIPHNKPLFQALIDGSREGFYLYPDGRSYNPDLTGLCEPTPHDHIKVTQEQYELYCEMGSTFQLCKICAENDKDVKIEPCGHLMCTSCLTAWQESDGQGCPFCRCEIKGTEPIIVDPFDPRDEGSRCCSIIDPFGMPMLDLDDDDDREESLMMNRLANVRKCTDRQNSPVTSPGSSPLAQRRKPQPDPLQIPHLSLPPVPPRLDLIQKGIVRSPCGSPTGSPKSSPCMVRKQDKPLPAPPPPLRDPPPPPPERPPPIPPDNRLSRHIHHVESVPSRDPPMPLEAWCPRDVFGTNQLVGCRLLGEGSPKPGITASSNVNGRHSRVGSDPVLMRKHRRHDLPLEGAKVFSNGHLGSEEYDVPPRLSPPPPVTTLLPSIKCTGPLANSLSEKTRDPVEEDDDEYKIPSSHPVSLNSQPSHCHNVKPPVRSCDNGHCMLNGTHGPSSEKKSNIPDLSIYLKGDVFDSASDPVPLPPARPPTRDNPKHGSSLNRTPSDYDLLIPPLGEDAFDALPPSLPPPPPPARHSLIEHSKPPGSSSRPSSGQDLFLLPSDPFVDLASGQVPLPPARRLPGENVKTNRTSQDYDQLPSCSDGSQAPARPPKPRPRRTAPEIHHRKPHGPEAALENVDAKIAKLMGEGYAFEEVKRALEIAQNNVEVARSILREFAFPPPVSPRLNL
Outline: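 Biotinylated Cbl-b was preincubated with compound for 60 min at room temperature in HEPES/NaCl/Triton/TCEP/BSA buffer. BODIPY probe was added for 15 min, followed by streptavidin-terbium, and the HTRF signal was read. Displacement was normalised to DMSO and no-protein controls, and affinity was obtained from a four-parameter dose-response fit.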

SMILES | EC50 (Jurkat cells) [nM] | IC50 (Cbl-b) [nM]
C[C@H]1CCCN(Cc2cc3c(C4CC4)cn(-c4cccc(C(C)(F)c5nccn5C)c4)c(=O)c3[nH]2)C1 (some centres unmarked) [Example 164] | 1000 to 5000 | 1000 to 5000
Cn1cnnc1[C@]1(c2cccc(-n3cc(C4CC4)c4[nH]c(=O)[nH]c4c3=O)c2)C[C@H](C)C1 (single isomer, unassigned) [Example 117, 7-cyclopropyl-5-[3-[cis-3-methyl-1-(4-methyl-1,2,4-triazol-3-yl)cyclobutyl]phenyl]-1,3-dihydroimidazo[4,5-c]pyridine-2,4-dione] | > 5000 | 100 to 1000
CC1CC(c2cccc(-n3cc(C4CC4)c4cc(CN5[C@@H]6COC[C@H]5C6)[nH]c4c3=O)c2)(c2nncn2C)C1 (stereo partly drawn) [Example 60, 4-cyclopropyl-6-{3-[3-methyl-1-(4-methyl-4H-1,2,4-triazol-3-yl)cyclobutyl]phenyl}-2-{[(1R,5S)-3-oxa-6-azabicyclo[3.1.1]heptan-6-yl]methyl}-1H,6H,7H-pyrrolo[2,3-c]pyridin-7-one] | 1000 to 5000 | < 100
CC1CC(c2cccc(-n3cc(C4CC4)c4cc(CO)[nH]c4c3=O)c2)(c2nncn2C)C1 (centres unmarked) [Example 8, 4-cyclopropyl-2-(hydroxymethyl)-6-[3-[3-methyl-1-(4-methyl-1,2,4-triazol-3-yl)cyclobutyl]phenyl]-1H-pyrrolo[2,3-c]pyridin-7-one] | 1000 to 5000 | 1000 to 5000

Continued, values first:

EC50 (Jurkat cells) [nM] | IC50 (Cbl-b) [nM] | SMILES
< 100 | < 100 | C[C@H]1CCCN(Cc2cc3c(C4CC4)cn(-c4cccc([C@]5(c6nncn6C)C[C@@H](F)C5)c4)c(=O)c3[nH]2)C1 [Example 129, cis-4-cyclopropyl-6-[3-[3-fluoro-1-(4-methyl-1,2,4-triazol-3-yl)cyclobutyl]phenyl]-2-[[(3S)-3-methylpiperidin-1-yl]methyl]-1H-pyrrolo[2,3-c]pyridin-7-one]
1000 to 5000 | 100 to 1000 | CC1CC(c2cccc(-n3cc(C4CC4)c4cc[nH]c4c3=O)c2)(c2nncn2C)C1 (centres unmarked) [Example 4, 4-cyclopropyl-6-[3-[3-methyl-1-(4-methyl-1,2,4-triazol-3-yl)cyclobutyl]phenyl]-1H-pyrrolo[2,3-c]pyridin-7-one]
100 to 1000 | < 100 | CC1CC(c2cccc(-n3cc(C4CC4)c4cc(CN5C[C@H]6C[C@@H]5CO6)[nH]c4c3=O)c2)(c2nncn2C)C1 (stereo partly drawn) [Example 51, 4-cyclopropyl-6-{3-[3-methyl-1-(4-methyl-4H-1,2,4-triazol-3-yl)cyclobutyl]phenyl}-2-{[(1R,4R)-2-oxa-5-azabicyclo[2.2.1]heptan-5-yl]methyl}-1H,6H,7H-pyrrolo[2,3-c]pyridin-7-one]
100 to 1000 | 100 to 1000 | COC(C)(c1cccc(-n2cc(C3CC3)c3cc(CN4CCC[C@H](C)C4)[nH]c3c2=O)c1)c1nncn1C (stereo partly drawn) [Example 159, 4-cyclopropyl-6-[3-[1-methoxy-1-(4-methyl-1,2,4-triazol-3-yl)ethyl]phenyl]-2-[[(3S)-3-methylpiperidin-1-yl]methyl]-1H-pyrrolo[2,3-c]pyridin-7-one]
1000 to 5000 | < 100 | Cn1nccc1-c1c[nH]c2c(=O)n(-c3cccc([C@]4(c5nncn5C)C[C@@H](C)C4)c3)cc(C3CC3)c12 [Example 132, 4-Cyclopropyl-3-(1-methyl-1H-pyrazol-5-yl)-6-{3-[(1R,3S)-3-methyl-1-(4-methyl-4H-1,2,4-triazol-3-yl)cyclobutyl]phenyl}-1H,6H,7H-pyrrolo[2,3-c]pyridin-7-one]
100 to 1000 | < 100 | C[C@H]1CCCN(Cc2cc3c(C4CC4)cn(-c4cccc(C(F)(F)c5nncn5C)c4)c(=O)c3[nH]2)C1 [Example 161, 4-cyclopropyl-6-[3-[difluoro-(4-methyl-1,2,4-triazol-3-yl)methyl]phenyl]-2-[[(3S)-3-methylpiperidin-1-yl]methyl]-1H-pyrrolo[2,3-c]pyridin-7-one]
